Assay results from patent US20040072902A1, “Methods for inducing apoptosis and inhibiting proliferation in cancer cells” (priority 2003, published 2004).

Experiments:
[1] = system: AsPC-1 human pancreatic cancer cells; experiment: Thymidine incorporation proliferation assay in AsPC-1 cells; assay type: cell-based
Excerpt: This can be seen in FIG. 1A (results using myristoleic acid obtained from Sigma Chemicals (St. Louis, Mo.)) and FIG. 1B (results using myristoleic acid obtained from Matreya, Inc. (State College, Pa.)).
(§1) The results are presented in FIG. 2A (cetyl myristoleic acid) and FIG. 2B (palmitoleic acid).
(§2) The thymidine incorporation experiments described in Example 1 were repeated in triplicate on each of two malignant human pancreatic cancer cell lines, AsPC-1 and PANC-1. The results are set forth in FIG. 3A (AsPC-1) and FIG. 3B (PANC-1).

[2] = system: PANC-1 human pancreatic cancer cells; experiment: Thymidine incorporation proliferation assay in PANC-1 cells; assay type: cell-based
Excerpt: as §2

[3] = system: AsPC-1 human pancreatic cancer cells; experiment: Cell morphology during inhibition of proliferation; assay type: cell-based; details: membrane blebbing, cellular rounding, detachment, data not shown
Excerpt: as §1

AsPC-1 cells [4] = experiment: Annexin V binding (early apoptosis); assay type: cell-based, human; details: 10 μg/ml; 3 or 5 hours after beginning treatment
Method: The effect of myristoleic acid (10 μg/ml) (“MA”) on annexin V binding in AsPC-1 cells at 3 or 5 hours after beginning treatment is shown in FIG. 4. […] This specific test utilizes the translocation of phophatidyl serine from the inner to outer plasma membrane, which is a feature of early apoptosis. The results set forth in FIG. 4 are representative of three separate experiments.

AsPC-1 cells [5] = experiment: TUNEL assay (DNA fragmentation); assay type: cell-based, human; details: 10 μg/ml; 24 hours; versus control
Method: The effect of myristoleic acid (10 μg/ml) (“MA”) on terminal deoxynucleotidyl transferase-mediated dUTP nick end labeling (“TUNEL”) assay at 24 hours in AsPC-1 cells was investigated. The results are presented in FIGS. 5A (control) and 5B (10 μg/ml myristoleic acid). […] The results set forth in FIGS. 5A and 5B are representative of three separate experiments.

AsPC-1 xenografts [6] = experiment: Growth of AsPC-1 xenografts in athymic mice; assay type: in vivo; details: 250 mg/kg/day intraperitoneal
Method: (§3) The effects of daily intraperitoneal injection of myristoleic acid (250 mg/kg/day) on the growth of AsPC-1 and HPAC xenografts in athymic mice were investigated. Animals were injected daily with myristoleic acid (250 mg/kg/day) (labeled “myristoleic acid” in FIG. 6) or with a control solution (labeled “control” in FIG. 6) once visible tumors were established (about five days after implantation). […] The experiment was repeated twice with AsPC-1 cells and also with HPAC cells. The results set forth in FIG. 6 are representative of these experiments.
(§4) Tumor volumes of the above-described athymic mice were measured as a function of time, and the results are presented in FIG. 7A (AsPC-1 cancer cells) and FIG. 7B (HPAC cancer cells).
(§5) At the end of the experiment, the AsPC-1 and HPAC xenografts were harvested from the athymic mice and the weights of the tumors were measured.

HPAC xenografts = experiment: Growth of HPAC xenografts in athymic mice; assay type: in vivo; details: 250 mg/kg/day intraperitoneal
Method: as §3, §4, §5

AsPC-1 xenografts [7] = experiment: In situ TUNEL assay of harvested xenografts; assay type: in vivo, athymic mice; details: AsPC-1 xenografts harvested at end of experiment; versus vehicle (minimal staining)
Method: To determine whether the effects observed in the athymic mouse experiments described in Example 7 might be due to apoptosis, in situ TUNEL assays were carried out on the AsPC-1 xenografts that were harvested from the athymic mice at the end of the experiment. Images of xenograft sections from mice treated with the control solution (vehicle only) (FIGS. 9A and 9B) show minimal staining.

SMILES	anti-proliferative activity, concentration range of effects [1]	inhibition of proliferation as measured by thymidine incorporation ([1]; 24 hours, myristoleic acid from two commercial sources (Sigma, Matreya))	effects on pancreatic cancer cell proliferation (thymidine incorporation) ([1]; repeated in triplicate)	anti-proliferative activity, concentration range of effects [2]	effects on pancreatic cancer cell proliferation (thymidine incorporation) ([2]; repeated in triplicate)	morphological changes accompanying inhibition of proliferation [3]	annexin V binding (AsPC-1 cells [4])	number of apoptotic cells by TUNEL assay (AsPC-1 cells [5])	tumor size (AsPC-1 xenografts [6]; daily, AsPC-1 xenografts, throughout the experimental period)	tumor weight (AsPC-1 xenografts [6]; AsPC-1, at the end of the experiment)	tumor volume (AsPC-1 xenografts [6]; AsPC-1, throughout the experimental period)	tumor size (HPAC xenografts; daily, HPAC xenografts, throughout the experimental period)	tumor weight (HPAC xenografts; HPAC, at the end of the experiment)	tumor volume (HPAC xenografts; HPAC, throughout the experimental period)	apoptotic cells in xenograft sections (in situ TUNEL) (AsPC-1 xenografts [7])	inhibition of proliferation as measured by thymidine incorporation ([1]; Example 2)
CCCC/C=C\CCCCCCCC(=O)O [myristoleic acid]	low micromolar range	concentration-dependent inhibition of proliferation	concentration-dependent effects	low micromolar range	concentration-dependent effects	morphological changes associated with apoptosis	Marked membrane fluorescence	marked increase in the number of apoptotic cells	marked reduction in tumor size	marked reduction	marked reduction	marked reduction in tumor size	marked reduction	marked reduction	many apoptotic cells	–
CCCCCC/C=C\CCCCCCCC(=O)O [palmitoleic acid]	–	–	–	–	–	morphological changes associated with apoptosis	–	–	–	–	–	–	–	–	–	concentration-dependent inhibition of proliferation
CCCC/C=C\CCCCCCCC(=O)OCCCCCCCCCCCCCCCC [cetyl myristoleic acid]	–	–	–	–	–	morphological changes associated with apoptosis	–	–	–	–	–	–	–	–	–	concentration-dependent inhibition of proliferation
